Data taken from patent US20220280543A1, “DDX17 AND NLRC4 TARGETING FOR INFLAMMATORY DISEASES” (University of Virginia Patent Foundation, priority 2019, published 2022).

Assays:
ASC oligomerization = test: Alu RNA induced ASC oligomerization in THP1 cells after siRNA knockdown; type: cell-based, human; details: siRNA knockdown (FIG. 12A)
Text: (§1) FIGS. 12A and 12B. DDX17 knockdown blocks Alu RNA (SEQ ID NO: 86) induced ASC oligomerization and IL-1β release. FIG. 12A. siRNA mediated DDX17 knockdown (siRNA for DDX17: CCAAUCUGAUGUAUCAGGA; SEQ ID NO: 91), but not Ddx5 (siRNA for DDX5: GGAAAUUACAGUUAGAGGU; SEQ ID NO: 89) in THP1 cells, blocked Alu RNA (SEQ ID NO: 86) induced ASC oligomerization. The band of ASC oligomers were indicated by black arrow. FIG. 12B. siRNA mediated DDX17 knockdown, but not Ddx5 in THP1 cells, blocked Alu RNA (SEQ ID NO: 86) induced IL-1β release.
(§2) To further confirm that DDX17 is the sensor for NLRC4, we investigated caspase-1 cleavage by immunoblotting and IL-1β secretion by ELISA in Alu RNA (SEQ ID NO: 86) or mock treated THP1 cells and DDX17 KO BMDMs respectively.

NLRP3 inflammasome = test: LPS+ATP induced NLRP3 inflammasome (caspase-1) after DDX17 knockdown; type: cell-based; details: LPS 125 ng/ml plus ATP, siRNA 24 hours before (FIG. 15)
Procedure: (§3) FIG. 15. […] THP1 cell were transfected with siRNA target on DDX17 (siRNA sequence: CCAAUCUGAUGUAUCAGGA; SEQ ID NO: 91), and then 24 hours later, Flagellin (3 μg/ml) or LPS (125 ng/ml) plus ATP ([…]/30 minutes), DOTAP plus LPS was added to the THP1 cells. Supernatants were collected for Caspase-1 detection. […] Loading control show by actin. The caspase-1 precursor is referred as p45, and the active form of caspase-1 as p20. The adaptor protein for inflammasome assembly, apoptosis-associated speck-like protein containing a CARD (ASC) is labeled as ASC. The caspase-1p20) bands were indicated with black arrow.
(§4) We finally examined whether DDX17 has a role in conventional NLRC4 activation by flagellin that requires NAIP and LPS+ATP dependent NLRP3 inflammasome activation. We treated […] with flagellin or LPS+ATP and transfected with siDDX17 and examined NLRC4 or NLRP3 dependent caspase-1 cleavage.

RPE degeneration = test: Alu RNA induced RPE degeneration in mice, fundus images and ZO-1 staining; type: in vivo; details: mice, subretinal Alu RNA; fundus and ZO-1 (FIGS. 25B, 26)
Procedure: FIGS. 25A and 25B. NLRC4 knockdown blocks Alu RNA (SEQ ID NO: 86) induced ASC oligomerization and RPE degeneration. Human RPE cell treated with siRNA target on NLRC4 (SMARTPOOL siRNA for NLRC4: CAACUGGGCUCCUCUGUAA; SEQ ID NO: 93) and NAIP (SMARTPOOL siRNA for NAIP: GUAAAGAGCUAUAUGGAUA; SEQ ID NO: 94), 24 hours later, treated with Alu RNA (SEQ ID NO: 86 at 100 pmol) FIG. 25A. […] The band of ASC oligomers was indicated by black arrow. […] The hyperdense areas due to the RPE degeneration in fundus images and ZO-1 disorganizations in RPE sheet are indicated by white arrows.
FIG. 26. […] Wilde type of C57/B6 mice were intravitreally injected with siRNA target on Ddx17 (siRNA for Ddx17: GGCUAGAUGUGGAAGAUGU; SEQ ID NO: 95), and two days later, Nlrc4^−/−, Naip1-6^−/−, mice and Ddx17 knockdown mice were subretinally injected with Alu RNA (SEQ ID NO: 86). […] The hyperdense areas due to the RPE degeneration in fundus images and ZO-1 disorganizations in RPE sheet are indicated by white arrows.
Next, we asked whether Alu RNA (SEQ ID NO: 86) also triggered NLRC4 inflammasome activation in human RPE cells. We performed immunofluorescence staining experiments to examine whether Alu RNA (SEQ ID NO: 86) can induce NLRC4 speck formation in human RPE cells. We noticed punctate structures resembling specks of NLRC4 in human RPE cells in response to Alu RNA (SEQ ID NO: 86) treatment (FIG. 24A). […] We further investigated downstream events of NLRC4 inflammasome activation by studying NLRC4-induced ASC oligomerization, a critical step involved in caspase-1 cleavage. NLRC4 siRNA, when co-administered with Alu RNA (SEQ ID NO: 86), blocked ASC oligomerization in vitro (FIG. 25A) and RPE degeneration in vivo (FIG. 25B).
We delivered Alu RNA (SEQ ID NO: 86) or Alu RNA (SEQ ID NO: 86)+siDDX17 subretinally in WT or NLRC4 KO or NAIP1-6 KO mice and examined for RPE degeneration using fundus photos and ZO-1 staining as described previously.

caspase-1 = test: Alu RNA induced caspase-1 activation in THP1 cells after siRNA knockdown; type: cell-based, human; details: siRNA knockdown (FIGS. 11A, 11B)
Text: FIGS. 11A and 11B. Ddx17 involved in Alu RNA (SEQ ID NO: 86) induced inflammasome independent of its microprocessor function. DDX17 is a component of microprocessor complexes with DDX5 and Drosha. To test whether the microprocessor function of DDX17 is required for Alu RNA (SEQ ID NO: 86) induced inflammasome, we measured caspase-1 activation in THP cells with DDX5 or Drosha knockdown (siRNA for DDX5: GGAAAUUACAGUUAGAGGU; SEQ ID NO: 89); siRNA for Drosha: GACAAGUUGAUAGGAUAUA; SEQ ID NO: 90). FIG. 11A. siRNA mediated Ddx17 knockdown, but not Ddx5 in THP1 cells, blocked Alu RNA (SEQ ID NO: 86) induced caspase-1 activation. […] The caspase-1 (p20) bands were indicated with black arrows.
We next examined whether DDX5 or DDX17 was the sensor for Alu RNA (SEQ ID NO: 86) induced NLRC4 inflammasome activation. Due to the high degree of similarity in the sequences of DDX5 and DDX17, we designed 3 siRNAs targeting DDX5 alone, DDX17 alone, or both DDX5 and DDX17, and confirmed their target efficiency in THP1 cells (FIG. 11A). […] Therefore, we tested whether Drosha is also involved in SINE RNA-DDX17-NLRC4 axis. […] These observations implicate that DDX17 mediated SINE RNA induced NLRC4 inflammasome is independent of microprocessor function.

[1] = system: CXCL10, IFNB, IL-1β, CASPASE-1 expression; test: Alu RNA induced type I interferon response and inflammatory priming, qPCR, BMDM with DDX17 knockdown; type: cell-based, mouse; details: siRNA 24 hours before Alu RNA 100 pmol, qPCR (FIGS. 14A, 14B)
Procedure: FIGS. 14A and 14B. […] Wild type BMDM cell were transfected with siRNA target on DDX17 (CCAAUCUGAUGUAUCAGGA; SEQ ID NO: 91), and then 24 hours later, BMDM cells were treated with Alu RNA (SEQ ID NO: 86; 100 pmol). Total RNA extracted for qPCR assay.
We previously reported that Alu RNA (SEQ ID NO: 86) induces a type I interferon (IFN) response and inflammatory priming in BMDMs. Since DDX17 is essential for Alu RNA (SEQ ID NO: 86) induced inflammasome activation, we tested whether DDX17 knockdown could affect downstream events of the inflammasome cascade such as the type I IFN response.

IL-1β = test: Alu RNA induced IL-1β release in THP1 cells after siRNA knockdown, ELISA; type: cell-based, human; details: siRNA knockdown (FIG. 12B)
Text: as §1, §2

NLRC4 inflammasome = test: Flagellin induced classical NLRC4 inflammasome (caspase-1) after DDX17 knockdown; type: cell-based; details: Flagellin 3 μg/ml, siRNA 24 hours before (FIG. 15)
Procedure: as §3, §4

## siDDX17: siRNA for DDX17: CCAAUCUGAUGUAUCAGGA; SEQ ID NO: 91 (chemistry not fully specified)
ASC oligomerization
  Alu RNA induced ASC oligomerization, THP1 cells: prevented
NLRP3 inflammasome
  LPS+ATP induced NLRP3 inflammasome, caspase-1 levels: does not affect
RPE degeneration
  Alu RNA induced RPE degeneration in vivo, effect of siRNA: rescued from this phenotype
caspase-1
  caspase-1 cleavage in Alu RNA treated THP1 cells: inhibited
caspase-1; listed as DDX17 siRNA
  caspase-1 cleavage in Alu RNA treated THP1 cells: reduce
[1]
  expression of caspase-1, CXCL10, IFNβ, IL-18 and IL-1β genes after Alu RNA: did not affect
IL-1β
  Alu RNA induced IL-1β release, THP1 cells, ELISA: significantly reduced
NLRC4 inflammasome
  flagellin induced NLRC4 inflammasome, caspase-1 levels: does not affect
